Measured values as given in ChEMBL document CHEMBL4800726, “Data for DCP probe MSC-4381” (2021).

Tests used:
[1] = target: 5-hydroxytryptamine receptor 6 (Homo sapiens, UniProt P50406); settings: Compound concentration 10.0 uM
[2] = target: Muscarinic acetylcholine receptor M4 (Homo sapiens) (UniProt P08173); settings: Compound concentration 10.0 uM
[3] = target: Alpha-1A adrenergic receptor (Homo sapiens) (UniProt P35348); settings: Compound concentration 10.0 uM
[4] = target: T1, 5-hydroxytryptamine receptor 3A (Homo sapiens) (UniProt P46098); settings: Compound concentration 10.0 uM
T1 sequence (whole entry): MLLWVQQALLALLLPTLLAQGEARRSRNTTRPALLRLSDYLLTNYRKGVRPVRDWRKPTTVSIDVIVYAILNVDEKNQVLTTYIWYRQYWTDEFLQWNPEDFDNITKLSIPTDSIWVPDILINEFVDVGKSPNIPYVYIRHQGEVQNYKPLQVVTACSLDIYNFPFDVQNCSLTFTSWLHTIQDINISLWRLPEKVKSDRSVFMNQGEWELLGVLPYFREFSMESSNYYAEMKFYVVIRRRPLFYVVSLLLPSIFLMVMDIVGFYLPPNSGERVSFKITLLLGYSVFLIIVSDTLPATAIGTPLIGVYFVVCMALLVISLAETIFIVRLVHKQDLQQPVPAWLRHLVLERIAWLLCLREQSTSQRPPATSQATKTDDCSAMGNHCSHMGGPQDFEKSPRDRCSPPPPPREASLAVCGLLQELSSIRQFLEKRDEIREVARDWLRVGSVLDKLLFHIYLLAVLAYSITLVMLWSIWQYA

[5] = target: T2, Muscarinic acetylcholine receptor M5 (Homo sapiens) (UniProt P08912); settings: Compound concentration 10.0 uM
T2 sequence (whole entry): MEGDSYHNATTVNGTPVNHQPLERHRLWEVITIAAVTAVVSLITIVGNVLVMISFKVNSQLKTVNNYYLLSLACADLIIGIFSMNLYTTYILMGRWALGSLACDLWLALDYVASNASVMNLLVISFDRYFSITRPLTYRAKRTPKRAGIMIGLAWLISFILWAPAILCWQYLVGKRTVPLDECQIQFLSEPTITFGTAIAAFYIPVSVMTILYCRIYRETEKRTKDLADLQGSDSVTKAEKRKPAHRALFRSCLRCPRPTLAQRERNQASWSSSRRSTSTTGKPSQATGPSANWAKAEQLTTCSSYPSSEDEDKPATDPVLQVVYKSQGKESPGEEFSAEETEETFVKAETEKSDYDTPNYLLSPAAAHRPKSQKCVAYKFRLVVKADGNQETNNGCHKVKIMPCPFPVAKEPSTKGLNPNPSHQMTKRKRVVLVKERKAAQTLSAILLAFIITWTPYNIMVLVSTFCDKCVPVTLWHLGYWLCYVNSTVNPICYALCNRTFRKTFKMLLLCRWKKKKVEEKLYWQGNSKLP

[6] = target: Alpha-2B adrenergic receptor (Homo sapiens) (UniProt P18089); settings: Compound concentration 10.0 uM
[7] = target: 5-hydroxytryptamine receptor 2B (Homo sapiens) (UniProt P41595); settings: Compound concentration 10.0 uM
[8] = target: D(1A) dopamine receptor (Homo sapiens) (UniProt P21728); settings: Compound concentration 10.0 uM
[9] = target: Alpha-1B adrenergic receptor (Homo sapiens) (UniProt P35368); settings: Compound concentration 10.0 uM
Rattus norvegicus = species on record: Rattus norvegicus; settings: Compound concentration 10.0 uM
[10] = target: Alpha-1D adrenergic receptor (Homo sapiens) (UniProt P25100); settings: Compound concentration 10.0 uM
[11] = target: Alpha-2C adrenergic receptor (Homo sapiens) (UniProt P18825); settings: Compound concentration 10.0 uM
[12] = target: Beta-1 adrenergic receptor (Homo sapiens) (UniProt P08588); settings: Compound concentration 10.0 uM
[13] = target: Sigma non-opioid intracellular receptor 1 (Homo sapiens) (UniProt Q99720); settings: Compound concentration 10.0 uM
[14] = target: GABA-A receptor; anion channel (Rattus norvegicus) (UniProt O09028+P15431+P18506+P18508+P19969+P20236+P23574+P23576+P28471+P28473+P30191+P62813+P63079+P63138+Q91ZM7+Q9ES14); settings: Compound concentration 10.0 uM
[15] = target: Sodium-dependent noradrenaline transporter (Homo sapiens) (UniProt P23975); settings: Compound concentration 10.0 uM
[16] = target: T3, Muscarinic acetylcholine receptor M2 (Homo sapiens) (UniProt P08172); settings: Compound concentration 10.0 uM
T3 sequence (whole entry): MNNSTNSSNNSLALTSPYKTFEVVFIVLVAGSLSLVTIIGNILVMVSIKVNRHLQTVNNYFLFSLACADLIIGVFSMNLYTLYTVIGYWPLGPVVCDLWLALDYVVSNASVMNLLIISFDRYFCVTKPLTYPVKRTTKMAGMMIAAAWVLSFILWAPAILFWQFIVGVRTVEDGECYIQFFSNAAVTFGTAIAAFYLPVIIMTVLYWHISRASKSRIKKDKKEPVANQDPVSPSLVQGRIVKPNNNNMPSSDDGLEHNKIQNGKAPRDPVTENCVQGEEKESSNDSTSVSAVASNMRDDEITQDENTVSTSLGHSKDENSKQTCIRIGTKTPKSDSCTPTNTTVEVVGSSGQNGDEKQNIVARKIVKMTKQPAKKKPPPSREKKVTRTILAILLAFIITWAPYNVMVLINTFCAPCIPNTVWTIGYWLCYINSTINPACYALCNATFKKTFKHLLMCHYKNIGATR

[17] = target: 5-hydroxytryptamine receptor 7 (Homo sapiens) (UniProt P34969); settings: Compound concentration 10.0 uM
[18] = target: Sodium-dependent dopamine transporter (Homo sapiens, UniProt Q01959); settings: Compound concentration 10.0 uM
[19] = target: Monocarboxylate transporter 2/3 (Homo sapiens, UniProt O60669+O95907); experiment: Lactate efflux inhibition assay (RT4); format: protein assay
[20] = target: Delta-type opioid receptor (Homo sapiens, UniProt P41143); settings: Compound concentration 10.0 uM
[21] = target: Sodium-dependent serotonin transporter (Homo sapiens) (UniProt P31645); settings: Compound concentration 10.0 uM
[22] = target: 5-hydroxytryptamine receptor 2A (Homo sapiens) (UniProt P28223); settings: Compound concentration 10.0 uM
[23] = target: D(4) dopamine receptor (Homo sapiens) (UniProt P21917); settings: Compound concentration 10.0 uM
[24] = target: Beta-2 adrenergic receptor (Homo sapiens) (UniProt P07550); settings: Compound concentration 10.0 uM

Alpha-2C adrenergic receptor (Homo sapiens), sequence (P18825 whole entry): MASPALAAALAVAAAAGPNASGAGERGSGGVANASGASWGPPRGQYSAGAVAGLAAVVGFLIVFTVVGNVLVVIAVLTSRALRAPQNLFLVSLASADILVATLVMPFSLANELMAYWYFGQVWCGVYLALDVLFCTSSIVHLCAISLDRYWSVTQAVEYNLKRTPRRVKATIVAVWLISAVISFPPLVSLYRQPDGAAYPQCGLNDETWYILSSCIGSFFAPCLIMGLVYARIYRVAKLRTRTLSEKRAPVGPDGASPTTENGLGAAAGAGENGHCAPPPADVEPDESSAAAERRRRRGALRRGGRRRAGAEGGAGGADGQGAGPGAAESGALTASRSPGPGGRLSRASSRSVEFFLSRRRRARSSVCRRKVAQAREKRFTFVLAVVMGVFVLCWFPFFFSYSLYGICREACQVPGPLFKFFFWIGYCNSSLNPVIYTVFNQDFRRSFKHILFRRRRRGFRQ
Sigma non-opioid intracellular receptor 1 (Homo sapiens), sequence (Q99720 whole entry): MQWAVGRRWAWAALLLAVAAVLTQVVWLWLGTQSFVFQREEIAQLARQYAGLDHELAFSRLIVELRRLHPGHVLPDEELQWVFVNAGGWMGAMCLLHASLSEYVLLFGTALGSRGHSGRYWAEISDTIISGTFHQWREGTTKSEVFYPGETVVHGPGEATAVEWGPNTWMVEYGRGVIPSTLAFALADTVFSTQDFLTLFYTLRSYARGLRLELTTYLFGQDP
Alpha-2B adrenergic receptor (Homo sapiens), sequence (P18089 whole entry): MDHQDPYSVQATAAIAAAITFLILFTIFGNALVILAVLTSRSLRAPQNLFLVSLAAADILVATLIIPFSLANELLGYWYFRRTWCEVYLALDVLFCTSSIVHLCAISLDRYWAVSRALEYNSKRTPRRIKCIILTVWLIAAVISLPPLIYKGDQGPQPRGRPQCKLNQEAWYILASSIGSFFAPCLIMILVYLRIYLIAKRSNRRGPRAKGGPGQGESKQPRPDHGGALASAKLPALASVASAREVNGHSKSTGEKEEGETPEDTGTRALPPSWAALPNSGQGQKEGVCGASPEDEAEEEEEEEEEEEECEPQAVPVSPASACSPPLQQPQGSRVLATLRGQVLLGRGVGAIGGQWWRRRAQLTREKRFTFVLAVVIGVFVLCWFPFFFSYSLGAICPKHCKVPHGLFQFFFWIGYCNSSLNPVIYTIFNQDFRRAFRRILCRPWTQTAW
D(1A) dopamine receptor (Homo sapiens), sequence (P21728 whole entry): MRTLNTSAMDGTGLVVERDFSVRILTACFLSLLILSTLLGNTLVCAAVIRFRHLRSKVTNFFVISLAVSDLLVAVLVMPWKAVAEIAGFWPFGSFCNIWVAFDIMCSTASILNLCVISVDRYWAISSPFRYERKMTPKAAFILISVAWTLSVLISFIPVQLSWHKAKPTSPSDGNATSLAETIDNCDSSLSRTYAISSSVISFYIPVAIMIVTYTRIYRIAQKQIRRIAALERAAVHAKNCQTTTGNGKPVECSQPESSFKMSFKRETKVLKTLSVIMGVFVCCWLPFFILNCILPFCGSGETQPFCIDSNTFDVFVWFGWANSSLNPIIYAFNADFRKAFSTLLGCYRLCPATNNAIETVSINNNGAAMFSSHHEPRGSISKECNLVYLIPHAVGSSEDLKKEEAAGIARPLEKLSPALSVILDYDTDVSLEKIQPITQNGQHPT
Muscarinic acetylcholine receptor M4 (Homo sapiens), sequence (P08173 whole entry): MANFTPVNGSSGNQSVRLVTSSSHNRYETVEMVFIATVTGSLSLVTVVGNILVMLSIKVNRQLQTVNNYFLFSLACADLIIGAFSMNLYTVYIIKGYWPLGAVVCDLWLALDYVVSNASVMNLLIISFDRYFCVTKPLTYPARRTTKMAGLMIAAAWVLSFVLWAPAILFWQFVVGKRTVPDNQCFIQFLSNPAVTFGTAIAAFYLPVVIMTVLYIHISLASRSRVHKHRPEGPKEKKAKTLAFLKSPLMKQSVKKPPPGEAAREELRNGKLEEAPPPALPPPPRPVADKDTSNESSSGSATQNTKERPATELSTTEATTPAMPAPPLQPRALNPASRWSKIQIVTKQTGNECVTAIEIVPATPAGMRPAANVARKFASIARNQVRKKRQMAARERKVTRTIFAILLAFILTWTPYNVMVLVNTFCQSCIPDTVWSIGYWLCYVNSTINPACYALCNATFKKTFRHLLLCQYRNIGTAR
Alpha-1B adrenergic receptor (Homo sapiens), sequence (P35368 whole entry): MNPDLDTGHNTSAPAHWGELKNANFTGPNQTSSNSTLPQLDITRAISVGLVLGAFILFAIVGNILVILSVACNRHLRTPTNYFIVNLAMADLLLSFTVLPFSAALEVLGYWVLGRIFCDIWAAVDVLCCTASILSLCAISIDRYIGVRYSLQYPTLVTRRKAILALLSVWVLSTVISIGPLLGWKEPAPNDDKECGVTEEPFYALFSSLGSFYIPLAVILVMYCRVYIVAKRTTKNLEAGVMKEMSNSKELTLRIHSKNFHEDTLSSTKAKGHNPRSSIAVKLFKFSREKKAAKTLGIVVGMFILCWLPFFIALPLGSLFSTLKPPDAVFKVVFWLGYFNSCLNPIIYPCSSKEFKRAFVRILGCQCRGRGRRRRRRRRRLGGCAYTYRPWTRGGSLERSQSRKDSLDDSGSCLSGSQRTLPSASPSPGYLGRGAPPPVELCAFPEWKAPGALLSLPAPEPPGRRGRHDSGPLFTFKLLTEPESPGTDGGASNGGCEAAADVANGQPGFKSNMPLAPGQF
D(4) dopamine receptor (Homo sapiens), sequence (P21917 whole entry): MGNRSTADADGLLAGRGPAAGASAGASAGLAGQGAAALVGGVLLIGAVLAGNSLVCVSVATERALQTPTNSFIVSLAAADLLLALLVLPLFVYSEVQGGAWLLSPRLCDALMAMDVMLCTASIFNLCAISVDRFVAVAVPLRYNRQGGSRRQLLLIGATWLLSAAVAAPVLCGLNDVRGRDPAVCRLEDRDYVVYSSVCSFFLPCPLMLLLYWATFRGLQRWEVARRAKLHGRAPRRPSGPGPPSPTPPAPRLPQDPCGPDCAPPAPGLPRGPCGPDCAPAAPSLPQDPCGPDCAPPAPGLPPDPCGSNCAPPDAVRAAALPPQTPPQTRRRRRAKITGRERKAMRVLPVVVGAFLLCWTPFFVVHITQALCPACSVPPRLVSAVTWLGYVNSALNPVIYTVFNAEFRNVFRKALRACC
Beta-1 adrenergic receptor (Homo sapiens), sequence (P08588 whole entry, looked up): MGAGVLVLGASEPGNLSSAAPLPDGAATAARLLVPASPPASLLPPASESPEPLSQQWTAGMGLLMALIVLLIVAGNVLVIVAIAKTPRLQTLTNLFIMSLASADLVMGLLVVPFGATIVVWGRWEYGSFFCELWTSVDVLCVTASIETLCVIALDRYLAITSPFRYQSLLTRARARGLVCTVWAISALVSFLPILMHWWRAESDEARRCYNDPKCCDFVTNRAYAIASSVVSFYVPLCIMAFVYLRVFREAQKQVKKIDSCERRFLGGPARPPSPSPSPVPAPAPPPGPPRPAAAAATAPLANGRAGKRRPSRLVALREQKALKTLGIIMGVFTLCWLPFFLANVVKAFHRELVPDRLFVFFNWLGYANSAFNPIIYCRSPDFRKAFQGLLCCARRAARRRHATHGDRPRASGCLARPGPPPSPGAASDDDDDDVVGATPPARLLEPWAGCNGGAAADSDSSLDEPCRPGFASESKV
Sodium-dependent serotonin transporter (Homo sapiens), sequence (P31645 whole entry, looked up): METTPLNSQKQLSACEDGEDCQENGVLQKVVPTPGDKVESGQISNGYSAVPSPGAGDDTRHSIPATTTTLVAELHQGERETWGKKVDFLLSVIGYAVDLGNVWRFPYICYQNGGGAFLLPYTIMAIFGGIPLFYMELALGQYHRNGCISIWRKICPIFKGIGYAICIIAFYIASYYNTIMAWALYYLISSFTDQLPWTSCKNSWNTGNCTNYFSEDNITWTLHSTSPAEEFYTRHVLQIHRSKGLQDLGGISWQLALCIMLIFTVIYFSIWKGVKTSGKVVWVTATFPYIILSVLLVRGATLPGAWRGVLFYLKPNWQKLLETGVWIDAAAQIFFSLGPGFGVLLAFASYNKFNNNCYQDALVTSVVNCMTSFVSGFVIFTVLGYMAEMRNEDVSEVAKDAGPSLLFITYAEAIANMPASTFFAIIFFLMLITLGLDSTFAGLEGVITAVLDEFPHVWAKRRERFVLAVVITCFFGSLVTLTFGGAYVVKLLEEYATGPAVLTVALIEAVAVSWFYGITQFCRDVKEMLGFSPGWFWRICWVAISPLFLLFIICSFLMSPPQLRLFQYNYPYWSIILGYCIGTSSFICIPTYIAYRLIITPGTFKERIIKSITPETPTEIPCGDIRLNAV
Alpha-1D adrenergic receptor (Homo sapiens), sequence (P25100 whole entry): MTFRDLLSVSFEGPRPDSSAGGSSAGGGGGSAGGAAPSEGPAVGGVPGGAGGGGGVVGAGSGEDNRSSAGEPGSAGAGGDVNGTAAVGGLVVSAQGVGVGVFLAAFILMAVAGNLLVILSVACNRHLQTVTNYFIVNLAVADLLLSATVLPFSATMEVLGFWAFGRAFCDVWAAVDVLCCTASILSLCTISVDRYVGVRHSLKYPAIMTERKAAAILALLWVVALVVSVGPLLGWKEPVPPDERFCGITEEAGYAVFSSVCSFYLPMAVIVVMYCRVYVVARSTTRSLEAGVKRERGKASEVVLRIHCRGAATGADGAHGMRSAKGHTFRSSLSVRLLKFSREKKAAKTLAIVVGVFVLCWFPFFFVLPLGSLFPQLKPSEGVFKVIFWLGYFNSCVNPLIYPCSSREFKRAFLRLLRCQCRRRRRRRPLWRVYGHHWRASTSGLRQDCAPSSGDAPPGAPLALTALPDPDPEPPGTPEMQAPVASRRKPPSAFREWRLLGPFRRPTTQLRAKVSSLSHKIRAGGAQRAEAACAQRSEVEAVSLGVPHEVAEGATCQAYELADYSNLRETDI

Row | inhibition [1] [%] | inhibition [2] [%] | inhibition [3] [%] | inhibition [4] [%] | inhibition [5] [%] | inhibition [6] [%] | inhibition [7] [%] | inhibition [8] [%] | inhibition [9] [%] | inhibition (Rattus norvegicus) [%] | inhibition [10] [%] | inhibition [11] [%] | inhibition [12] [%] | inhibition [13] [%] | inhibition [14] [%] | inhibition [15] [%] | inhibition [16] [%] | inhibition [17] [%] | inhibition [18] [%] | IC50 [19] | Structure (SMILES) | other results
1 | 65.5 | -5.83 | 13.7 | 1.13 | -3.36 | 8.34 | 34.9 | 17.8 | 16.9 | 60.4 | 1.48 | 13 | 16.7 | 18.7 | 25.6 | -7.14 | 2.62 | -2.53 | 80.3 | > 4 µM (not active) | COc1cc(C(=O)O)ncc1C#Cc1ccccc1NS(=O)(=O)c1cccc2c(N(C)C)ccnc12 [MSC-0516] | inhibition [20]: 84.3%; inhibition [21]: 3.99%; inhibition [22]: 9.61%; inhibition [23]: 4.65%; inhibition [24]: -2.19%
2 | 25.9 | 4.24 | 13.3 | 9.43 | -6.26 | 15 | 8.83 | 8.58 | -9.4 | 45 | 20.8 | 27.7 | 18.8 | -6.66 | 0.15 | 34.4 | -0.58 | 2.02 | 23.4 | 0.638 µM | CCOc1ccc(S(=O)(=O)Nc2ccc(Cl)cc2C#Cc2cnc(C(=O)O)cc2OC)c2ncccc12 [MSC-4381] | inhibition [20]: -8.88%; inhibition [21]: 6.49%; inhibition [22]: -0.22%; inhibition [23]: 4.2%; inhibition [24]: 14.8%
